Measurements taken from PubChem BioAssay AID248 (DTP/NCI, 2004).
Several values for one entry are separate records, joined by “and”; a condition that tells them apart may be missing. Equal values may be shown once. Inconclusive results and toxic doses are left out. No stated cut-off is given here; in the data, active means T/C of 150% or more; inactive means T/C below 125%.

System: L1210 leukemia ip in BDF1 mice, survival T/C
Assay: NCI In Vivo Anticancer Drug Screen. Data for tumor model L1210 Leukemia (intraperitoneal) in B6D2F1 (BDF1) mice
Conditions: endpoint: mean survival time, higher = longer survival
Summary of the method: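 Antitumor effect is assessed in tumor-bearing animals. Survival in the compound arm is compared with a vehicle-dosed control arm and expressed as their quotient.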

[1] = dose: 100.0 mg/kg/injection, schedule: Q04DX002 (ip), vehicle: saline with Tween-80
[2] = dose: 200.0 mg/kg/injection, schedule: Q04DX002 (ip), vehicle: saline with Tween-80
[3] = dose: 400.0 mg/kg/injection, schedule: Q04DX002 (ip), vehicle: saline with Tween-80
[4] = dose: 100.0 mg/kg/injection, schedule: Q01DX009 (ip), vehicle: Klucel (hydroxypropylcellulose) (HPC)
[5] = dose: 100.0 mg/kg/injection, schedule: Q04DX003 (ip), vehicle: Klucel (hydroxypropylcellulose) (HPC)
[6] = dose: 200.0 mg/kg/injection, schedule: Q01DX009 (ip), vehicle: Klucel (hydroxypropylcellulose) (HPC)
[7] = dose: 200.0 mg/kg/injection, schedule: Q04DX003 (ip), vehicle: Klucel (hydroxypropylcellulose) (HPC)
[8] = dose: 400.0 mg/kg/injection, schedule: Q04DX003 (ip), vehicle: Klucel (hydroxypropylcellulose) (HPC)
[9] = dose: 100.0 mg/kg/injection, schedule: Q04DX002 (ip), vehicle: Klucel (hydroxypropylcellulose) (HPC)
[10] = dose: 400.0 mg/kg/injection, schedule: Q01DX009 (ip), vehicle: Klucel (hydroxypropylcellulose) (HPC)
[11] = dose: 100.0 mg/kg/injection, schedule: Q01DX001 (ip), vehicle: saline
[12] = dose: 200.0 mg/kg/injection, schedule: Q01DX001 (ip), vehicle: saline
[13] = dose: 400.0 mg/kg/injection, schedule: Q01DX001 (ip), vehicle: saline
[14] = dose: 100.0 mg/kg/injection, schedule: Q04DX003 (ip), vehicle: saline with Tween-80
[15] = dose: 200.0 mg/kg/injection, schedule: Q04DX003 (ip), vehicle: saline with Tween-80
[16] = dose: 400.0 mg/kg/injection, schedule: Q04DX003 (ip), vehicle: saline with Tween-80

Measured: T/C

O=C(CS(=O)(=O)O)c1ccc(Br)cc1
inactive: [1] 97 % of control | [2] 97 % of control | [3] 94 % of control

CC(=O)Oc1cc(C)c(OC(C)=O)c2ccccc12
inactive: [4] 96 % of control | [5] 96 % of control | [6] 93 % of control | [7] 103 % of control | [8] 96 % of control

O=C1OC(O)c2cccc3cccc1c23 (configuration not stated)
inactive: dose: 12.5 mg/kg/injection, schedule: Q01DX009 (ip), vehicle: saline with Tween-80 93 % of control and 89 % of control

CN(C)Cc1cc(Cl)ccc1O
inactive: [9] 100 % of control

CCOC(=O)c1ccc(NCC(=N)N)cc1
inactive: dose: 100.0 mg/kg/injection, schedule: Q01DX001 (ip), vehicle: saline sonified 103 % of control | dose: 200.0 mg/kg/injection, schedule: Q01DX001 (ip), vehicle: saline sonified 100 % of control

CCCCCCCCCCCCCCCCCC(=O)N/N=C/C(C=C=C(C)C)(CC)CCCC (configuration not stated)
inactive: [4] 101 % of control | [6] 96 % of control | [10] 96 % of control

CCNC(=O)NC(=O)CN1CCOCC1
inactive: dose: 100.0 mg/kg/injection, schedule: Q04DX003 (ip), vehicle: saline sonified 100 % of control | dose: 200.0 mg/kg/injection, schedule: Q04DX003 (ip), vehicle: saline sonified 102 % of control | dose: 400.0 mg/kg/injection, schedule: Q04DX003 (ip), vehicle: saline sonified 100 % of control

CC(C)Nc1ccc(Nc2ccc(NC(C)C)cc2)cc1
inactive: dose: 1.56 mg/kg/injection, schedule: Q04DX003 (ip), vehicle: alcohol 102 % of control | dose: 3.12 mg/kg/injection, schedule: Q01DX009 (ip), vehicle: alcohol 98 % of control | dose: 3.12 mg/kg/injection, schedule: Q04DX003 (ip), vehicle: alcohol 109 % of control | dose: 6.25 mg/kg/injection, schedule: Q01DX009 (ip), vehicle: alcohol 94 % of control | dose: 6.25 mg/kg/injection, schedule: Q04DX003 (ip), vehicle: alcohol 105 % of control | dose: 12.5 mg/kg/injection, schedule: Q01DX009 (ip), vehicle: alcohol 96 % of control | dose: 12.5 mg/kg/injection, schedule: Q04DX003 (ip), vehicle: alcohol 95 % of control | dose: 18.0 mg/kg/injection, schedule: Q01DX009 (ip), vehicle: alcohol 104 % of control

Cc1ncc(CO)c(/C=N/N=C(N)N)c1O
inactive: dose: 30.0 mg/kg/injection, schedule: Q01DX Z (oral), vehicle: methylcellulose (MC) 92 % of control | dose: 120.0 mg/kg/injection, schedule: Q01DX Z (oral), vehicle: methylcellulose (MC) 94 % of control | dose: 240.0 mg/kg/injection, schedule: Q01DX Z (oral), vehicle: methylcellulose (MC) 103 % of control

O=c1[nH]nc(N2CCOCC2)c(=O)[nH]1
inactive: [11] 104 % of control | [12] 104 % of control | [13] 96 % of control

CC(C)N(C(=O)Nc1cc(C(F)(F)F)ccc1Cl)C1CCCCC1
inactive: dose: 100.0 mg/kg/injection, schedule: Q01DX001 (ip), vehicle: carboxymethylcellulose (CMC) 95 % of control | dose: 100.0 mg/kg/injection, schedule: Q01DX009 (ip), vehicle: carboxymethylcellulose (CMC) 92 % of control and 88 % of control | dose: 100.0 mg/kg/injection, schedule: Q04DX002 (ip), vehicle: carboxymethylcellulose (CMC) 97 % of control | dose: 100.0 mg/kg/injection, schedule: Q04DX003 (ip), vehicle: carboxymethylcellulose (CMC) 96 % of control | dose: 200.0 mg/kg/injection, schedule: Q01DX001 (ip), vehicle: carboxymethylcellulose (CMC) 90 % of control | dose: 200.0 mg/kg/injection, schedule: Q01DX009 (ip), vehicle: carboxymethylcellulose (CMC) 93 % of control and 100 % of control | dose: 200.0 mg/kg/injection, schedule: Q04DX002 (ip), vehicle: carboxymethylcellulose (CMC) 98 % of control and 108 % of control | dose: 200.0 mg/kg/injection, schedule: Q04DX003 (ip), vehicle: carboxymethylcellulose (CMC) 96 % of control | dose: 400.0 mg/kg/injection, schedule: Q01DX001 (ip), vehicle: carboxymethylcellulose (CMC) 93 % of control | dose: 400.0 mg/kg/injection, schedule: Q01DX009 (ip), vehicle: carboxymethylcellulose (CMC) 95 % of control | dose: 400.0 mg/kg/injection, schedule: Q04DX002 (ip), vehicle: carboxymethylcellulose (CMC) 87 % of control and 90 % of control | dose: 400.0 mg/kg/injection, schedule: Q04DX003 (ip), vehicle: carboxymethylcellulose (CMC) 91 % of control

CCCCCCCCCCCCCCCCNS(=O)(=O)c1ccc(N2CCOCC2)c(N)c1
inactive: [5] 93 % of control | [7] 98 % of control | [8] 94 % of control

O=c1[nH]nnc2[nH]ncc12
inactive: [14] 102 % of control | [15] 104 % of control | [16] 98 % of control

BrC1C2CC3C1C3C2c1ccccc1 (configuration not stated)
inactive: [4] 117 % of control | [5] 103 % of control | [6] 109 % of control | [7] 107 % of control | [10] 107 % of control | [8] 103 % of control

NC(=O)N/N=C/C(c1ccccc1)c1ccccc1
inactive: [14] 96 % of control | [15] 94 % of control | [16] 103 % of control

O=C(O)c1ccc(Br)s1
inactive: [11] 97 % of control | [12] 99 % of control

O=c1cc(Oc2ccccc2)[nH]c(=O)[nH]1
inactive: dose: 65.0 mg/kg/injection, schedule: Q01DX001 (ip), vehicle: Klucel (hydroxypropylcellulose) (HPC) 112 % of control | dose: 130.0 mg/kg/injection, schedule: Q01DX001 (ip), vehicle: Klucel (hydroxypropylcellulose) (HPC) 93 % of control | dose: 260.0 mg/kg/injection, schedule: Q01DX001 (ip), vehicle: Klucel (hydroxypropylcellulose) (HPC) 93 % of control

ON=C1CCSCC1
inactive: [11] 107 % of control | [12] 98 % of control | [13] 108 % of control

CCC(CO)NC(=O)C1C=C2c3cccc4c3c(cn4C)CC2N(C)C1 (configuration not stated)
inactive: dose: 25.0 mg/kg/injection, schedule: Q01DX009 (ip), vehicle: Klucel (hydroxypropylcellulose) (HPC) 94 % of control and 101 % of control | dose: 25.0 mg/kg/injection, schedule: Q04DX003 (ip), vehicle: Klucel (hydroxypropylcellulose) (HPC) 97 % of control | dose: 50.0 mg/kg/injection, schedule: Q01DX009 (ip), vehicle: Klucel (hydroxypropylcellulose) (HPC) 94 % of control and 101 % of control | dose: 50.0 mg/kg/injection, schedule: Q04DX003 (ip), vehicle: Klucel (hydroxypropylcellulose) (HPC) 103 % of control | [4] 111 % of control and 91 % of control | [5] 108 % of control | [6] 120 % of control and 121 % of control | [7] 109 % of control | [10] 120 % of control | [8] 104 % of control

Cc1ccc([N+](=O)[O-])cc1NC(=O)Nc1ccc(Nc2ccccc2)cc1
inactive: [9] 86 % of control | dose: 200.0 mg/kg/injection, schedule: Q04DX002 (ip), vehicle: Klucel (hydroxypropylcellulose) (HPC) 86 % of control | dose: 400.0 mg/kg/injection, schedule: Q04DX002 (ip), vehicle: Klucel (hydroxypropylcellulose) (HPC) 97 % of control

O=C1C(Cl)=C(NCc2ccco2)C(=O)c2ccccc21
inactive: dose: 77.0 mg/kg/injection, schedule: Q01DX Z (ip), vehicle: methylcellulose (MC) 89 % of control | dose: 116.0 mg/kg/injection, schedule: Q01DX Z (ip), vehicle: methylcellulose (MC) 87 % of control | dose: 175.0 mg/kg/injection, schedule: Q01DX Z (ip), vehicle: methylcellulose (MC) 95 % of control

C[n+]1nc2ccccc2c(=Nc2ccccc2[N+](=O)[O-])[n-]1
inactive: dose: 100.0 mg/kg/injection, schedule: Q01DX001 (ip), vehicle: Klucel (hydroxypropylcellulose) (HPC) 93 % of control | dose: 200.0 mg/kg/injection, schedule: Q01DX001 (ip), vehicle: Klucel (hydroxypropylcellulose) (HPC) 94 % of control | dose: 400.0 mg/kg/injection, schedule: Q01DX001 (ip), vehicle: Klucel (hydroxypropylcellulose) (HPC) 94 % of control

Cc1ccc(C)c(NS(=O)(=O)c2ccc(Cl)c([N+](=O)[O-])c2)c1
inactive: [4] 110 % of control | [6] 105 % of control | [10] 107 % of control

CCCS(=O)(=O)N1CCCCCC1
inactive: [1] 92 % of control | [2] 92 % of control | [3] 92 % of control

Cc1ccc(S(=O)(=O)Oc2ccc(C(C)(C)c3ccc(OS(=O)(=O)c4ccc(C)cc4)cc3)cc2)cc1
inactive: dose: 50.0 mg/kg/injection, schedule: Q01DX001 (ip), vehicle: saline 98 % of control | [11] 93 % of control | [4] 96 % of control | [5] 93 % of control | [12] 93 % of control | [6] 91 % of control | [7] 95 % of control | [13] 90 % of control | [10] 91 % of control | [8] 98 % of control
